# Reference: ChEMBL document CHEMBL1201862, “PubChem BioAssay data set” (2004)
# Activity calls are given as the source filed them.
# Tests used:
# Protein skinhead-1 = target: T1, Protein skinhead-1 (Caenorhabditis elegans, UniProt P34707); assay type: functional
# T1 sequence (P34707 whole entry): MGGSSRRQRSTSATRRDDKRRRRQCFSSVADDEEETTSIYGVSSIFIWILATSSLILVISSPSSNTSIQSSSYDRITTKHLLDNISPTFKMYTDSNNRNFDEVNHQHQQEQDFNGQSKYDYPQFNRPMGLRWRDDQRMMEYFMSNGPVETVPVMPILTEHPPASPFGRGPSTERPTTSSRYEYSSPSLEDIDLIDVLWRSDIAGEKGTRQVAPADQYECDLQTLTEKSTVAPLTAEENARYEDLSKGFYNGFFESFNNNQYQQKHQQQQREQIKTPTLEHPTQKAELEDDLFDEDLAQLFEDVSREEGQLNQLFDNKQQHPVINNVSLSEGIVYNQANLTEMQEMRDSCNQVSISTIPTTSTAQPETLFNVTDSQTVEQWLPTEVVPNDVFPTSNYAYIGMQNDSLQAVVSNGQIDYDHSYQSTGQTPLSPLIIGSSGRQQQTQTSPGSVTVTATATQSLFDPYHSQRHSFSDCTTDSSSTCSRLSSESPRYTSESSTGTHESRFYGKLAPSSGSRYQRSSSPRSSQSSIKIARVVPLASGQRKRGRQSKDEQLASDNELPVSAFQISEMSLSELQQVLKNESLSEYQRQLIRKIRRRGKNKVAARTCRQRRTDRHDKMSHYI
# [1] = target: T2, Heat shock factor protein 1 (Mus musculus, UniProt P38532); experiment: inhibition of MG132-induced HSE-luciferase signal, confirmation, cell-based, NIH3T3, luminescence, dose retest (AID 2382); assay type: functional;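 further: NIH3T3 fibroblasts with HSF1-driven luciferase reporter stressed by proteasome inhibitor MG132; luminescence from HSF1-driven luciferase expression after 8 hours of MG132 stress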
# T2 sequence (P38532 whole entry): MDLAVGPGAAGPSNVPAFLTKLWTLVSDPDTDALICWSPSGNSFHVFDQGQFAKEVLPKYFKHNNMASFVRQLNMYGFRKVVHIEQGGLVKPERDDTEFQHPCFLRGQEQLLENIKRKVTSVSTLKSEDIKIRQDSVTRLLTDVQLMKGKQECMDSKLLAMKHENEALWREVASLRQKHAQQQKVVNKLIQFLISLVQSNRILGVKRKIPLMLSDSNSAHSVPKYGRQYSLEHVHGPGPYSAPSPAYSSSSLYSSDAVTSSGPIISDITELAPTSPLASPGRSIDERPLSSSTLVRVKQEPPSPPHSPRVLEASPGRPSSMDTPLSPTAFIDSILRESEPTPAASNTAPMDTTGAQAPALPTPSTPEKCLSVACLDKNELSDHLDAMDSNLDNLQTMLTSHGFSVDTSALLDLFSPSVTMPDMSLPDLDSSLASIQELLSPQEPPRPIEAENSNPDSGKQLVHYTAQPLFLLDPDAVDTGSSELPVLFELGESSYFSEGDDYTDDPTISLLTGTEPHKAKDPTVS
# INS1 = experiment: beta cell apoptosis inhibitors, cytokine rescue, dose response, luminescence, retest (AID 449756); assay type: functional, cell-based; details: Rattus norvegicus;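 further: cell death triggered by IL-1 beta plus TNF-alpha plus IFN-gamma mixture; protective hits raise ATP signal compared with cytokine alone wells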
# [2] = Luminescence Cell-Based Dose Retest to Confirm Inhibitors of Cancer Stem Cells. [Related pubchem assays (depositor defined):AID2717, AID2721]; assay type: functional; details: Homo sapiens
# Cytochrome P450 3A4 = Cytochrome P450 3A4 (Homo sapiens, UniProt P08684);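 further: CYP3A4 tested as one member of a cytochrome P450 panel screen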
# Chain of Cytochrome P450 3A4 (P08684 whole entry): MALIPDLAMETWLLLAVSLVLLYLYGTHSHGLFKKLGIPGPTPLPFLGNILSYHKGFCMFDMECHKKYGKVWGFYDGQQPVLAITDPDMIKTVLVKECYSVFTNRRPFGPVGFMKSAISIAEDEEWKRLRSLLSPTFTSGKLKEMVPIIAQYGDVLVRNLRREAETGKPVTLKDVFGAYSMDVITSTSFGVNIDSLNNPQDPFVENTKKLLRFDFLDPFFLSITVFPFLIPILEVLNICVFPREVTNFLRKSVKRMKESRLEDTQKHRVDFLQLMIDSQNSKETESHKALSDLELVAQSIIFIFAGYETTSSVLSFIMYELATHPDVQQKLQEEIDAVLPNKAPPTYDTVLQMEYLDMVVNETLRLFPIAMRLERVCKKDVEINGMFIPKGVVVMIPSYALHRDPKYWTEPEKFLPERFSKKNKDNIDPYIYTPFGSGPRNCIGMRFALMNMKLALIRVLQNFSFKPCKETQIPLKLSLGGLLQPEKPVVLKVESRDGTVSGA
# Streptokinase A = target: T3, Streptokinase A (Streptococcus pyogenes serotype M1, UniProt P10520); experiment: S. pyogenes streptokinase expression inhibitors, potency, dose response, plasminogen activation absorbance, OD405 (AID 1914); assay type: functional, Streptococcus pyogenes M1 GAS;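 further: secreted streptokinase activity via plasminogen activation per viability signal from cell pellet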
# T3 sequence (P10520 whole entry): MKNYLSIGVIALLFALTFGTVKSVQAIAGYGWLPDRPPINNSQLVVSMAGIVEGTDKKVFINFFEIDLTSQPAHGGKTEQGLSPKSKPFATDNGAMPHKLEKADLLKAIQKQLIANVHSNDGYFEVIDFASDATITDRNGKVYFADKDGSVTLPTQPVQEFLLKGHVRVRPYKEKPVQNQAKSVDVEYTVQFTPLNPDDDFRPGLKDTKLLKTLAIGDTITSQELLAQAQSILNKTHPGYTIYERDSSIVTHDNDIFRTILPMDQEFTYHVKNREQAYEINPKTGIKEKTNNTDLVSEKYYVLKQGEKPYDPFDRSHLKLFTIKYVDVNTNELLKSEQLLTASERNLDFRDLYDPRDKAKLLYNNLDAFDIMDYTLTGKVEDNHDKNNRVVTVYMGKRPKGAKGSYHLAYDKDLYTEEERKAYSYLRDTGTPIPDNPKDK
# [3] = tested on: Streptococcus sp. 'group A'; experiment: growth inhibition of control SK(-) GAS strain, dose response, counter-screen for streptokinase expression inhibitor project, luminescence, kanamycin, BacTiterGlo, confirmation (AID 1900); assay type: functional, organism-based
# Streptococcus = experiment: Group A Streptococcus viability loss, dose response, counter-screen for streptokinase expression inhibitor project, luminescence, BacTiterGlo (AID 1915); assay type: functional, organism-based;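 further: potency for reduction of bacterial viability or growth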
# [4] = Luminescence Cell-Based Dose Confirmation HTS to Identify Inhibitors of Platelet Dense Granule Release. [Related pubchem assays: 1663 (Primary HTS), 1678 (Summary of Project)]; assay type: functional
# [5] = target: Luciferin 4-monooxygenase (Photinus pyralis, UniProt P08659); experiment: firefly luciferase enzyme inhibitors, dose response, biochemical, luminescence (AID 1891)
# Chain of Luciferin 4-monooxygenase (P08659 whole entry): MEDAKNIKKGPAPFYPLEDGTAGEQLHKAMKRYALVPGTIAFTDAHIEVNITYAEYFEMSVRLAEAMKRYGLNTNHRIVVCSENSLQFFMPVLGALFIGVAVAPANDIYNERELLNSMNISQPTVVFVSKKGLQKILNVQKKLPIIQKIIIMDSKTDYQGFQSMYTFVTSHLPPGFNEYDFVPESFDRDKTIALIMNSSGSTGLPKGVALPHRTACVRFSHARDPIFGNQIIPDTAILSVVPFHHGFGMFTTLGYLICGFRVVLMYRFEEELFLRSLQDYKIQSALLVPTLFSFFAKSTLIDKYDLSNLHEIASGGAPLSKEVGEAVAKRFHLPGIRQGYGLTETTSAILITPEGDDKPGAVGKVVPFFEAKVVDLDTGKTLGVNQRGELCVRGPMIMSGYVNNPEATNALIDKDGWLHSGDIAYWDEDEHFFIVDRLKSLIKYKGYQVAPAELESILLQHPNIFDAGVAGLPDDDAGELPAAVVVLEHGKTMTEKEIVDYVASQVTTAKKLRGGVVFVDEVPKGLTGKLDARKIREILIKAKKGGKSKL
# Cytochrome P450 1A2 = target: T4, Cytochrome P450 1A2 (Homo sapiens, UniProt P05177);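 further: PubChem cytochrome P450 panel assay, CYP1A2 panel member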
# T4 sequence (P05177 whole entry): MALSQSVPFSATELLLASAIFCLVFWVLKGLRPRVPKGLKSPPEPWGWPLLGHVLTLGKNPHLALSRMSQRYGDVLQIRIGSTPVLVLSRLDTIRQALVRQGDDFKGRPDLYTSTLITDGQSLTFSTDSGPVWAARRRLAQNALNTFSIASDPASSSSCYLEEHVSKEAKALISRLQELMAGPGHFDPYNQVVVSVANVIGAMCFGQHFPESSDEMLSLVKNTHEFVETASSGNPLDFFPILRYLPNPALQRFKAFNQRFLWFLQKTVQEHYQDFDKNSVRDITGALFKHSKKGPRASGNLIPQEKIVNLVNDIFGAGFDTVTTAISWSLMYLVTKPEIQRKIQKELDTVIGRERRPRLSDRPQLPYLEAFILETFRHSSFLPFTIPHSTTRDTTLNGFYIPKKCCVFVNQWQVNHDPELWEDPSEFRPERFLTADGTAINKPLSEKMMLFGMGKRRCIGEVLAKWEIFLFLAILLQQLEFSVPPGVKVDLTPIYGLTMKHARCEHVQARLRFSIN
# Cytochrome P450 2C9 = Cytochrome P450 2C9 (Homo sapiens, UniProt P11712)
# Chain of Cytochrome P450 2C9 (P11712 whole entry): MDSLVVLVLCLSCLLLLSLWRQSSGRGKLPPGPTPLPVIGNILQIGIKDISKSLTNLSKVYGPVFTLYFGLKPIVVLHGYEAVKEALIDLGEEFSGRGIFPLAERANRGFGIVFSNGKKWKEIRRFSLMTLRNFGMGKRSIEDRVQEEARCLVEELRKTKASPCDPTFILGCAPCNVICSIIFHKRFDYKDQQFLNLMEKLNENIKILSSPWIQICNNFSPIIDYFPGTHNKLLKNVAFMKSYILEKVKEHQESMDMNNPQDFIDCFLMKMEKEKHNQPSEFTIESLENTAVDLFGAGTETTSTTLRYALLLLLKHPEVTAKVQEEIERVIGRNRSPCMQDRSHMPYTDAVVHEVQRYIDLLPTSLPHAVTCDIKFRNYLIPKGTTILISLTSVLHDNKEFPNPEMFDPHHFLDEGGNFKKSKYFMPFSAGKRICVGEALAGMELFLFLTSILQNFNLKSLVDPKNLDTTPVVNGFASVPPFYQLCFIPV
smiles,measurement,setting,value
CCOC(=O)c1cc(-c2ccco2)nc2c1c(C)nn2-c1ccccc1,IC50,Protein skinhead-1,> 100 µM (inactive)
Cn1c(=O)c2ncn(CC(=O)Nc3ccc4c5c(cccc35)CC4)c2n(C)c1=O,EC50,[1],> 195 µM (not active)
same,IC50,Protein skinhead-1,> 100 µM (inactive)
OC(c1ccccn1)c1c[nH]c2ccccc12 (configuration not stated),IC50,Protein skinhead-1,> 100 µM (inactive)
NC(=S)N/N=C/c1c(O)c(Br)cc2oc3c(c12)CCCC3,AC50,INS1,0.819 µM (active)
CCCCN=C(S)NNc1c(Cl)cc(Cl)cc1Cl,EC50,[1],> 195 µM (not active)
O=C(OCC(=O)N1N=C(c2ccc(Cl)cc2)CC1c1ccco1)c1ccccc1O (configuration not stated),IC50,Protein skinhead-1,> 100 µM (inactive)
CC(C)CC(C(=O)NCc1ccccn1)N1C(=O)c2ccccc2C1=O (configuration not stated),IC50,Protein skinhead-1,> 100 µM (inactive)
O=C(/C=C/c1ccc2c(c1)OCO2)NCCSCc1c(Cl)cccc1Cl,AC50,[2],1.42 µM (active)
CP(=O)(O)C1=CCNCC1,AC50,Cytochrome P450 3A4,39.8 µM (inconclusive)
O=C(NC(=S)Nc1ccccc1N1CCCCC1)c1ccc(F)cc1Cl,EC50,Streptokinase A,5.06 µM (active)
same,AC50,[2],1.67 µM (active)
same,EC50,[3],3.75 µM (active)
same,EC50,Streptococcus,> 150 µM (not active)
CCN(CC(=O)NCc1ccc(Cl)cc1)C(=O)CSc1ccc(Br)cc1,EC50,[4],> 112 µM (not active)
same,EC50,[5],43.9 µM (active)
Cc1cccc(CC(=O)NCCn2c(C)cc3ccccc32)c1,IC50,Protein skinhead-1,> 100 µM (inactive)
CC(=O)N(c1ccc2oc(=O)sc2c1)S(=O)(=O)c1ccc(C(=O)O)cc1,EC50,[1],> 195 µM (not active)
COc1ccc(C(=O)c2ccc3oc(-c4ccc(OC)cc4)c(-c4ccc(O)cc4)c3c2)cc1,AC50,[2],3.31 µM (active)
Cc1cc(C)cc(C(=O)N(C)[C@H](Cc2ccc(-c3ccccc3)cc2)C(=O)N[C@@H](Cc2c[nH]c3ccccc23)C(=O)O)c1,AC50,Cytochrome P450 1A2,39.8 µM (inconclusive)
same,AC50,Cytochrome P450 3A4,25.1 µM (inconclusive)
COc1ccc(C(C)=O)cc1CN1C(=O)C(C)ON=C1c1cccc(C(F)(F)F)c1 (configuration not stated),IC50,Protein skinhead-1,> 100 µM (inactive)
Cn1ccnc1SCC(=O)N(C1CCCCC1)C1CCCCC1,EC50,[1],> 195 µM (not active)
COc1ccc(-c2csc(CCn3nc(C)cc3C)n2)cc1,EC50,[4],> 112 µM (not active)
same,EC50,[5],> 112 µM (not active)
Cc1ccc(C(=O)N/N=C\c2cccn2C)cn1,AC50,Cytochrome P450 3A4,0.316 µM (inconclusive)
same,AC50,Cytochrome P450 2C9,89.1 µM (inconclusive)
CCCc1ccc(-c2cc(NC(=O)CSc3nnc(N)s3)n(-c3ccccc3)n2)cc1,AC50,[2],3.72 µM (active)
Nc1nc(Cl)nc(N(c2ccccc2)c2ccccc2)n1,EC50,[1],> 195 µM (not active)
CC(C)(C)NC(=O)c1cccc(NC(=O)Cc2cccs2)c1,EC50,[1],> 195 µM (not active)
O=C(CSc1nnc(-c2cccnc2)n1Cc1ccccc1)N1CCOCC1,EC50,[4],17.2 µM (active)
same,EC50,[5],> 112 µM (not active)
CCOC(=O)c1c(-c2ccc(Cl)cc2)csc1NC(=O)CNCc1ccco1,AC50,[2],2.72 µM (active)
CCOCC(=O)Nc1cccc(Br)c1,IC50,Protein skinhead-1,> 100 µM (inactive)
Cn1c(SCC(=O)N2CCCC2)nnc1-c1cccs1,EC50,[4],> 112 µM (not active)
same,EC50,[5],> 112 µM (not active)
O=c1c2ccccc2oc2ccc(-c3ccc4cc[nH]c4c3)cc12,IC50,Protein skinhead-1,> 100 µM (inactive)
O=C(Nc1ccc(Nc2ccccc2)cc1)Nc1ccccc1Cl,AC50,[2],2.12 µM (active)
COc1cc(N)c(Cl)cc1C(=O)OCCCN1CCCCC1,AC50,Cytochrome P450 3A4,25.1 µM (inconclusive)
CC(=O)Nc1cccc(NC(=O)CSc2nnc(Cc3cccn3C)n2-c2ccc(F)cc2)c1,EC50,[1],> 195 µM (not active)
COc1ccccc1NC(=O)C1=C(C)Nc2nnnn2C1c1ccccc1OC (configuration not stated),EC50,[4],72.3 µM (active)
same,EC50,[5],> 112 µM (not active)
CCn1c(=O)c(C(=O)Nc2ccccc2F)c(O)c2ccccc21,EC50,[1],> 195 µM (not active)
Cc1ccc(C)c(NC(=O)c2sc(Cl)nc2-c2ccccc2)c1,IC50,Protein skinhead-1,> 100 µM (inactive)
O=C(c1cccc(S(=O)(=O)N2CCOCC2)c1)N1CCN(c2ccc(F)cc2)CC1,EC50,[4],> 112 µM (not active)
same,EC50,[5],> 112 µM (not active)
Cn1c(=S)oc2ccccc21,EC50,[4],> 112 µM (not active)
same,EC50,[5],> 112 µM (not active)
O=[N+]([O-])c1ccc(N2CCN(C(S)=Nc3ccc(F)cc3)CC2)cc1,AC50,INS1,33.9 µM (active)
Cc1cccc(NC(=O)Cn2c(/C=C/c3ccccc3)nc3ccccc32)c1,AC50,INS1,30.6 µM (active)
Cc1ccc(NC(=O)N2CCCC2C(=O)NCC2CCCCC2)cc1 (configuration not stated),EC50,[1],> 195 µM (not active)
Cn1c(N2CCOCC2)nc(-c2ccccc2)c1-c1ccccc1,EC50,[1],> 195 µM (not active)
COc1ccc(C2CC(c3ccccc3)=NN2S(=O)(=O)c2ccc(C)cc2)c(OC)c1 (configuration not stated),IC50,Protein skinhead-1,> 100 µM (inactive)
CN(C)C(=O)c1ccc(-c2nccc(Nc3ccc(F)cc3)n2)cc1,AC50,Cytochrome P450 3A4,10 µM (inconclusive)
O=C(COC(=O)[C@H](Cc1ccccc1)N1C(=O)c2ccccc2C1=O)Nc1ccc2c(c1)OCO2,EC50,[1],> 195 µM (not active)
CN(C)CCNC(=O)c1sc2nc(-c3ccccc3)cc(C(F)(F)F)c2c1N,AC50,[2],2.65 µM (active)
Cc1cc(OCCCCN2C(=O)NC(C)(C)C2=O)cc(C)c1Cl,IC50,Protein skinhead-1,> 100 µM (inactive)
CN(Cc1ccccc1)C(=O)CCn1c(=O)oc2ccccc21,EC50,[1],> 195 µM (not active)
Cc1cccc(N2CCN(C(c3ccccc3)c3nnnn3CC3CCCO3)CC2)c1C (configuration not stated),EC50,[1],> 195 µM (not active)
CC(=O)OCCNC(=O)Cn1cnc2c1c(=O)n(C)c(=O)n2C,EC50,[4],> 112 µM (not active)
same,EC50,[5],> 112 µM (not active)
Cc1cc(NC(=O)c2cc3ncc(Br)cn3n2)no1,EC50,[4],> 112 µM (not active)
same,EC50,[5],> 112 µM (not active)
Cc1cc(C)c(NC(=O)CSc2ccc3nnc(CCNC(=O)c4ccccc4)n3n2)c(C)c1,EC50,[4],> 112 µM (not active)
same,EC50,[5],> 112 µM (not active)
CC(C)c1nc(-c2ccc([N+](=O)[O-])cc2)cs1,IC50,Protein skinhead-1,13.4 µM (active)
CCOC(=O)CSc1nc(O)c2c(n1)-c1ccccc1CC2(C)CC (configuration not stated),AC50,INS1,40.1 µM (active)
